Reference: patent publication US12391733B2, “Stapled intracellular-targeting antimicrobial peptides to treat infection” (priority 2016, dated 2025)
Positions of bridges follow the written chain, without caps; N, C: chain ends. Non-standard residues stand in square brackets, D forms with d. Residues, ends and D or L forms follow the SMILES beside them. R8 = C=CCCCCCC[C@@](C)(N)C(=O)O; S5 = C=CCCC[C@](C)(N)C(=O)O

Tests used:
[1] = test system: human red blood cells (RBCs); type: cell-based; settings: for % Hemolysis at 50 μg/ml: red cells of human, 1 h
Source text: One of the key obstacles that have long impeded the use of AMPs in systemic infections such as sepsis is their tendency to lyse human cells, such as red blood cells (RBCs). Thus, it is critical to minimize hemolytic activity as much as possible to achieve a therapeutic window. […] Of note, in those circumstances where hydrocarbon staples increase hemolytic activity due to increasing hydrophobicity, the alkene moiety can be modified, e.g., by dihydroxylation, to install hydrophilic residues and potentially mitigate hemolysis.
Hemolytic Activity Assay For the determination of hemolytic activity, the following protocol was applied: human blood samples were centrifuged to isolate red blood cells (RBCs), which were then washed and suspended in phosphate-buffered saline to yield a 1% (v/v) suspension. This suspension was then added to serial dilutions of peptide stocks in water in clear round-bottom polypropylene 96-well plates and the plates incubated for 1 hour at 37° C. After incubation, the plates were centrifuged and the supernatant isolated to determine the amount of hemoglobin released using a spectrophotometer (570 nm). The minimum hemolytic concentration (MHC) was determined by assessing the peptide concentration at which there was less than 1% hemoglobin release.

circular dichroism = settings: 10 mM phosphate buffer; pH 7.4; ns °C; 100 uM
E. coli = type: cell-based, Escherichia coli; settings: for Antimicrobial Activity NIC (μg/ml) E. coli: Table 1, microbroth dilution, refined MHB, 20-24 hours at 37° C.
Procedure: Antimicrobial Activity Assay The following microbroth dilution protocol was adapted to determine the MIC of each peptide. First, Mueller-Hinton broth (MHB) was passed through an anion exchange column to remove polyanionic species and generate refined MHB. This refined broth was then used in the standard microbroth dilution protocol devised by Hancock et al. for 96 well plates. […] Briefly, bacterial cells were grown overnight in refined MHB at 37° C. and then diluted and allowed to grow again for several hours. Serial dilutions of peptide stocks in water (10 μl) were prepared using clear round-bottom polypropylene 96-well plates. Then 90 μl of bacteria in refined MHB was added to give a final inoculum of 5×10^5 CFU/ml. The plates were then covered with porous tape to reduce evaporation, and incubated for 20-24 hours at 37° C.

SMILES | % Hemolysis at 50 μg/ml [1] [%] | helicity (circular dichroism) [%] | Antimicrobial Activity NIC (μg/ml) E. coli (E. coli) [µg/mL] | hemolytic activity (in words) [1] | antimicrobial activity (in words) (E. coli; compared to unstapled buforin II (F10W) and buforin II)
CC(C)C[C@H](NC(=O)CNC(=O)[C@H](C)NC(=O)[C@H](CCCNC(=N)N)NC(=O)[C@H](CO)NC(=O)[C@H](CO)NC(=O)[C@H](CCCNC(=N)N)NC(=O)[C@@H](N)[C@@H](C)O)C(=O)N[C@@H](CCC(N)=O)C(=O)N[C@@H](Cc1c[nH]c2ccccc12)C(=O)N1CCC[C@H]1C(=O)N[C@H](C(=O)N[C@@]1(C)CCCC=CCCC[C@@](C)(C(=O)N[C@@H](CC(C)C)C(=O)N[C@@H](CC(C)C)C(=O)N[C@@H](CCCNC(=N)N)C(=O)N[C@@H](CCCCN)C(N)=O)NC(=O)[C@H](Cc2c[nH]cn2)NC(=O)[C@H](C(C)C)NC(=O)[C@H](CCCNC(=N)N)NC1=O)C(C)C [BFStap(i + 4)5] (H-TRSSRAGLQWPV[S5]RVH[S5]LLRK-NH2; staple 13-17; N-terminus and C-terminus assumed) | 3.0 | 8.8 | 66.7 |  | 
CC(C)C[C@H](NC(=O)CNC(=O)[C@H](C)NC(=O)[C@H](CCCNC(=N)N)NC(=O)[C@H](CO)NC(=O)[C@H](CO)NC(=O)[C@H](CCCNC(=N)N)NC(=O)[C@@H](N)[C@@H](C)O)C(=O)N[C@@]1(C)CCCC=CCCC[C@@](C)(C(=O)N[C@@H](CCCNC(=N)N)C(=O)N[C@H](C(=O)N[C@@H](Cc2c[nH]cn2)C(=O)N[C@@H](CCCNC(=N)N)C(=O)N[C@@H](CC(C)C)C(=O)N[C@@H](CC(C)C)C(=O)N[C@@H](CCCNC(=N)N)C(=O)N[C@@H](CCCCN)C(N)=O)C(C)C)NC(=O)[C@H](C(C)C)NC(=O)[C@@H]2CCCN2C(=O)[C@H](Cc2c[nH]c3ccccc23)NC1=O [BFStap(i + 4)7] (H-TRSSRAGL[S5]WPV[S5]RVHRLLRK-NH2; staple 9-13; N-terminus and C-terminus assumed) | 3.4 | 6.9 | 6.3 | low hemolytic activity | greatest increase in antimicrobial activity
CC(C)C[C@H](NC(=O)[C@H](CC(C)C)NC(=O)[C@H](CCCNC(=N)N)NC(=O)[C@H](Cc1c[nH]cn1)NC(=O)[C@@H](NC(=O)[C@H](CCCNC(=N)N)NC(=O)CNC(=O)[C@]1(C)CCCC=CCCC[C@](C)(NC(=O)CNC(=O)[C@H](C)NC(=O)[C@H](CCCNC(=N)N)NC(=O)[C@H](CO)NC(=O)[C@H](CO)NC(=O)[C@H](CCCNC(=N)N)NC(=O)[C@@H](N)[C@@H](C)O)C(=O)N[C@@H](CCC(N)=O)C(=O)N[C@@H](Cc2c[nH]c3ccccc23)C(=O)N2CCC[C@H]2C(=O)N1)C(C)C)C(=O)N[C@@H](CCCNC(=N)N)C(=O)N[C@@H](CCCCN)C(N)=O [BFStap(i + 4)8] (H-TRSSRAG[S5]QWP[S5]GRVHRLLRK-NH2; staple 8-12; N-terminus and C-terminus assumed) | 2.8 | 2.3 | 29.2 |  | 
CC(C)C[C@@H]1NC(=O)CNC(=O)[C@H](C)NC(=O)[C@@](C)(NC(=O)[C@H](CO)NC(=O)[C@H](CO)NC(=O)[C@H](CCCNC(=N)N)NC(=O)[C@@H](N)[C@@H](C)O)CCCC=CCCC[C@@](C)(C(=O)N[C@@H](Cc2c[nH]c3ccccc23)C(=O)N2CCC[C@H]2C(=O)N[C@H](C(=O)NCC(=O)N[C@@H](CCCNC(=N)N)C(=O)N[C@H](C(=O)N[C@@H](Cc2c[nH]cn2)C(=O)N[C@@H](CCCNC(=N)N)C(=O)N[C@@H](CC(C)C)C(=O)N[C@@H](CC(C)C)C(=O)N[C@@H](CCCNC(=N)N)C(=O)N[C@@H](CCCCN)C(N)=O)C(C)C)C(C)C)NC1=O [BFStap(i + 4)9] (H-TRSS[S5]AGL[S5]WPVGRVHRLLRK-NH2; staple 5-9; N-terminus and C-terminus assumed) | 2.5 | 11.7 | 50.0 |  | 
CC(C)C[C@H](NC(=O)[C@H](CC(C)C)NC(=O)[C@H](CCCNC(=N)N)NC(=O)[C@H](Cc1c[nH]cn1)NC(=O)[C@@H](NC(=O)[C@H](CCCNC(=N)N)NC(=O)CNC(=O)[C@@H](NC(=O)[C@@H]1CCCN1C(=O)[C@H](Cc1c[nH]c2ccccc12)NC(=O)[C@H](CCC(N)=O)NC(=O)[C@]1(C)CCCC=CCCC[C@](C)(NC(=O)[C@H](CO)NC(=O)[C@H](CCCNC(=N)N)NC(=O)[C@@H](N)[C@@H](C)O)C(=O)N[C@@H](CCCNC(=N)N)C(=O)N[C@@H](C)C(=O)NCC(=O)N1)C(C)C)C(C)C)C(=O)N[C@@H](CCCNC(=N)N)C(=O)N[C@@H](CCCCN)C(N)=O [BFStap(i + 4)10] (H-TRS[S5]RAG[S5]QWPVGRVHRLLRK-NH2; staple 4-8; N-terminus and C-terminus assumed) | 2.4 | 20.9 | 100 |  | 
CC(C)C[C@H](NC(=O)CNC(=O)[C@]1(C)CCCC=CCCC[C@](C)(NC(=O)[C@@H](N)[C@@H](C)O)C(=O)N[C@@H](CO)C(=O)N[C@@H](CO)C(=O)N[C@@H](CCCNC(=N)N)C(=O)N1)C(=O)N[C@@H](CCC(N)=O)C(=O)N[C@@H](Cc1c[nH]c2ccccc12)C(=O)N1CCC[C@H]1C(=O)N[C@H](C(=O)NCC(=O)N[C@@H](CCCNC(=N)N)C(=O)N[C@H](C(=O)N[C@@H](Cc1c[nH]cn1)C(=O)N[C@@H](CCCNC(=N)N)C(=O)N[C@@H](CC(C)C)C(=O)N[C@@H](CC(C)C)C(=O)N[C@@H](CCCNC(=N)N)C(=O)N[C@@H](CCCCN)C(N)=O)C(C)C)C(C)C [BFStap(i + 4)12] (H-T[S5]SSR[S5]GLQWPVGRVHRLLRK-NH2; staple 2-6; N-terminus and C-terminus assumed) | 2.4 | 5.3 | >100 |  | 
CC(C)C[C@H](NC(=O)CNC(=O)[C@H](C)NC(=O)[C@]1(C)CCCC=CCCC[C@](C)(N)C(=O)N[C@@H](CCCNC(=N)N)C(=O)N[C@@H](CO)C(=O)N[C@@H](CO)C(=O)N1)C(=O)N[C@@H](CCC(N)=O)C(=O)N[C@@H](Cc1c[nH]c2ccccc12)C(=O)N1CCC[C@H]1C(=O)N[C@H](C(=O)NCC(=O)N[C@@H](CCCNC(=N)N)C(=O)N[C@H](C(=O)N[C@@H](Cc1c[nH]cn1)C(=O)N[C@@H](CCCNC(=N)N)C(=O)N[C@@H](CC(C)C)C(=O)N[C@@H](CC(C)C)C(=O)N[C@@H](CCCNC(=N)N)C(=O)N[C@@H](CCCCN)C(N)=O)C(C)C)C(C)C [BFStap(i + 4)13] (H-[S5]RSS[S5]AGLQWPVGRVHRLLRK-NH2; staple 1-5; N-terminus and C-terminus assumed) | 2.4 | 0 | >100 |  | 
CC(C)C[C@H](NC(=O)CNC(=O)[C@H](C)NC(=O)[C@H](CCCNC(=N)N)NC(=O)[C@H](CO)NC(=O)[C@H](CO)NC(=O)[C@H](CCCNC(=N)N)NC(=O)[C@@H](N)[C@@H](C)O)C(=O)N[C@@H](CCC(N)=O)C(=O)N[C@@H](Cc1c[nH]c2ccccc12)C(=O)N1CCC[C@H]1C(=O)N[C@H](C(=O)NCC(=O)N[C@]1(C)CCCCCCC=CCCC[C@@](C)(C(N)=O)NC(=O)[C@H](CCCNC(=N)N)NC(=O)[C@H](CC(C)C)NC(=O)[C@H](CC(C)C)NC(=O)[C@H](CCCNC(=N)N)NC(=O)[C@H](Cc2c[nH]cn2)NC(=O)[C@H](C(C)C)NC1=O)C(C)C [BFStap(i + 7)1] (H-TRSSRAGLQWPVG[R8]VHRLLR[S5]-NH2; staple 14-21; N-terminus and C-terminus assumed) | 16.6 | 16.9 | 10.4 |  | 
CC(C)C[C@H](NC(=O)CNC(=O)[C@H](C)NC(=O)[C@H](CCCNC(=N)N)NC(=O)[C@H](CO)NC(=O)[C@H](CO)NC(=O)[C@H](CCCNC(=N)N)NC(=O)[C@@H](N)[C@@H](C)O)C(=O)N[C@@H](CCC(N)=O)C(=O)N[C@@H](Cc1c[nH]c2ccccc12)C(=O)N1CCC[C@H]1C(=O)N[C@H](C(=O)N[C@]1(C)CCCCCCC=CCCC[C@@](C)(C(=O)N[C@@H](CCCCN)C(N)=O)NC(=O)[C@H](CC(C)C)NC(=O)[C@H](CC(C)C)NC(=O)[C@H](CCCNC(=N)N)NC(=O)[C@H](Cc2c[nH]cn2)NC(=O)[C@H](C(C)C)NC(=O)[C@H](CCCNC(=N)N)NC1=O)C(C)C [BFStap(i + 7)2] (H-TRSSRAGLQWPV[R8]RVHRLL[S5]K-NH2; staple 13-20; N-terminus and C-terminus assumed) | 3.1 | 15.6 | 33.3 |  | 
